Results from patent US20110021531A1, “OXAZOLE DERIVATIVES USEFUL AS INHIBITORS OF FAAH” (priority 2009, published 2011).
Counter-ions that a name gives are not always drawn.

What was measured:
[1] = target: T1, human FAAH (Fatty Acid Amide Hydrolase) (Homo sapiens, UniProt O00519); experiment: FAAH whole cell assay, CHO cells expressing human FAAH; type: cell-based
T1 construct: The full length FAAH was subcloned into the mammalian expression vector, pcDEF.neo
T1 sequence (O00519 1-579): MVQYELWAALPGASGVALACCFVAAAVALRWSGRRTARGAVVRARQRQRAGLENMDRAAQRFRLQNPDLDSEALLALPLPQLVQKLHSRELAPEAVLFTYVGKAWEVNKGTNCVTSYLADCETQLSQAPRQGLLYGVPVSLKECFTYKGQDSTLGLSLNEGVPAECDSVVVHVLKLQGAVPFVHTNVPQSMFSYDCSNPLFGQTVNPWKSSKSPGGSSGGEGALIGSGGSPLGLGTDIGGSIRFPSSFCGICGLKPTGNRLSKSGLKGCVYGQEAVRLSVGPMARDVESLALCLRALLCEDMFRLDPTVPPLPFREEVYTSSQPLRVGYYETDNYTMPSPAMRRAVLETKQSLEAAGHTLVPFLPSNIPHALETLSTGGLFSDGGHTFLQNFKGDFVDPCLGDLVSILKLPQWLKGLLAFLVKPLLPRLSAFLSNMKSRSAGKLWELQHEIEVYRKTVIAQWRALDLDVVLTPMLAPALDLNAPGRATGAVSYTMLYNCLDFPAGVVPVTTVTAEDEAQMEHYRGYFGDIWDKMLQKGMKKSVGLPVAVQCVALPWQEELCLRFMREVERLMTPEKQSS
Description: (§1) To assist in assay development stable cell lines for human, murine and rat full length FAAH were developed. Human FAAH cDNA (Accession No: NM_001441.1) was purchased from Origene (Rockville, Md.). The full length FAAH was subcloned into the mammalian expression vector, pcDEF.neo, using XbaI and EcoRI restriction sites and used for stable cell line generation.
(§2) Murine (accession number NM_010173) and Rat FAAH (accession number NM_024132) was amplified by reverse transcriptase polymerase chain reaction (RT-PCR) from brain cDNA (BD Biosciences, San Jose, Calif.) using primers 1 and 2 or primers 1 and 3 respectively (see Table). The resulting PCR product was ligated into pCR4 TOPO and DNA sequence confirmed. The full length murine FAAH was subcloned into the mammalian expression vector, pcDEFneo using either EcoRI (murine) or KpnI and EcoRI (rat) restriction sites. Chinese hamster ovary cells (CHO) were transfected following manufacturers protocol (AMAXA). Forty eight hours post transfection, cells were trypsinized and transferred to 96 well plates in Iscove's DMEM media supplemented with 2 mM Glutamine, 10% fetal calf serum, 1 mg/ml geneticin and HT Supplement (0.1 mM sodium hypoxanthine, 0.016 mM thymidine) in order to isolate single clones. Following selection in geneticin, individual clones were selected and FAAH activity was assessed using a whole cell fluorescent anandamide assay, modified from Ramarao et al (2005). Following removal of tissue culture media cells were dislodged following addition of Cellstripper (Mediatech, Inc. Manassas, Va.) and transferred to 96 well black clear bottom assay plate, centrifuged at 1,000 rpm for 3 mins and media removed and replaced with assay buffer (50 mM Iris pH8.0, 1 mM EDTA, 0.1% fatty acid free BSA). The reaction was initiated by addition of fluorescent substrate, AMC Arachidonoyl Amide (Cayman Chemical, Ann Arbor, Mich.) to 1 μM and reaction allowed to proceed for 2 hours at room temperature. Release of fluorescence was monitored in a CytoFluor Multiplate Reader. Cells expressing the highest amount of FAAH activity were selected for study with FAAH inhibitors.
(§3) (American Radiolabeled Chemicals; 1 mCi/ml) with FAAH (Life Sciences (1995), 56, 1999-2005 and Journal of Pharmacology and Experimented Therapeutics (1997), 283, 729-734), Analytical. Biochemistry (2003), 318, 270-5. In addition, routine assays were performed monitoring hydrolysis of arachidonyl-7-amino-4-methylcoumarin amide (AAMCA) by following increase in fluorescence upon release of 7-amino 4-methyl coumarin (λEX=355 nm, (λEM=460 nm). Analytical. Biochemistry (2005). 343, 143-51
(§4) Assays are performed on either cell lysate or microsome fractions prepared as described or in whole cell format employing either the fluorescent substrate AAMCA (Cayman chemical, Ann Arbor, Mich.,) or ^3H-anandmaide ([ETHANOLAMINE-1-3H]American Radiolabeled Chemicals; 1 mCi/ml). The cell lysate or microsome assay is performed in Costar black wall, clear bottom plates by adding FAAH_CF10 (whole cell, cell lysate or microsome) in assay buffer (50 mM Phosphate, pH 8.0, 1 mM EDTA, 200 mM KCl, 0.2% glycerol, 0.1% fatty acid free BSA) to each well, followed by either DMSO or compound and allowed to incubate at 22-25° C. for fifteen minutes. AAMCA substrate was used to achieve a final concentration of 1 μM and reaction allowed to proceed at room temperature for 1-3 hours. Fluorescent release as a measure of FAAH activity was monitored by reading the plate in a CytoFluor Multiplate Reader (Ex: […]). Whole cell assay is conducted with cells harvested after rinsing tissue culture flasks three times with Ca^++Mg^++ free PBS, incubating for 10 min in Enzyme free dissociation media and centrifuging for 5 minutes at 1,000 rpm in table top centrifuge. Cells are resuspended in assay buffer at desired cell number in (4×10^4 cells/assay in 96-well format; 1×10^4 cells/assay in 384-well format) and assayed as described.

[2] = target: T1, human FAAH (Fatty Acid Amide Hydrolase); experiment: FAAH enzyme assay on lysate of CHO cells expressing human FAAH; type: biochemical
Description: as §1
CHO cells expressing FAAH were used to prepare either crude cell lysate or microsome fractions. To harvest cells, tissue culture media was decanted, the monolayer washed three times with Ca^++Mg^++ free PBS and cells recovered after […] in enzyme free dissociation media (Millipore Corp, Billerica, Mass.). Cells were collected by centrifuging at 2000 rpm for 15 min. and the cell pellet re-suspended with 50 mM HEPES (pH 7.4) containing 1 mM EDTA and the protease inhibitors aprotinin (1 mg/ml) and leupeptin (100 μM). The suspension was sonicated at 4° C. and the cell lysate recovered after centrifuging at 12,000×g (14,600 rpm, SS34 rotor) for 20 min at 4° C. to form a crude pellet of cell debris, nuclei, peroxisomes, lysosomes, and mitochondria; the supernatant or cell lysate was used for FAAH enzyme assay. In some cases, microsomes fractions enriched in FAAH were prepared by centrifuging the cell lysate further at 27,000 rpm (100,000×g) in SW28 rotor for 50 minutes at 4° C. The pellet containing FAAH-enriched microsomes was re-suspend in 50 mM HEPES, (pH 7.4) 1 mM EDTA, and any remaining DNA sheared by passage of material through a 23 gauge needle and aliquots of enzyme were store at −80° C. prior to use.
as §3, §4
Alternatively, assays are performed using anandamide [ethanolamine 1-^3H] (specific activity of 10 Ci/mmol) diluted with cold anandamide to achieve a final assay concentration of 1 μM anandamide (˜50,000 cpm). Enzyme (CHO cell lysate, brain or liver homogenate) is incubated in assay buffer (50 mM Phosphate, pH 8.0, 1 mM EDTA, 200 mM KCl, 0.2% glycerol, 0.1% fatty acid free BSA) with inhibitor at 25° C. for 30 minutes. The reaction was terminated by addition of 2 volumes of chloroform:methanol (1:1) and mixed by vortexing. […]

[3] = target: T2, rat FAAH (Fatty Acid Amide Hydrolase) (Rattus norvegicus, UniProt P97612); experiment: FAAH whole cell assay, CHO cells expressing rat FAAH; type: cell-based
T2 sequence (P97612 1-579): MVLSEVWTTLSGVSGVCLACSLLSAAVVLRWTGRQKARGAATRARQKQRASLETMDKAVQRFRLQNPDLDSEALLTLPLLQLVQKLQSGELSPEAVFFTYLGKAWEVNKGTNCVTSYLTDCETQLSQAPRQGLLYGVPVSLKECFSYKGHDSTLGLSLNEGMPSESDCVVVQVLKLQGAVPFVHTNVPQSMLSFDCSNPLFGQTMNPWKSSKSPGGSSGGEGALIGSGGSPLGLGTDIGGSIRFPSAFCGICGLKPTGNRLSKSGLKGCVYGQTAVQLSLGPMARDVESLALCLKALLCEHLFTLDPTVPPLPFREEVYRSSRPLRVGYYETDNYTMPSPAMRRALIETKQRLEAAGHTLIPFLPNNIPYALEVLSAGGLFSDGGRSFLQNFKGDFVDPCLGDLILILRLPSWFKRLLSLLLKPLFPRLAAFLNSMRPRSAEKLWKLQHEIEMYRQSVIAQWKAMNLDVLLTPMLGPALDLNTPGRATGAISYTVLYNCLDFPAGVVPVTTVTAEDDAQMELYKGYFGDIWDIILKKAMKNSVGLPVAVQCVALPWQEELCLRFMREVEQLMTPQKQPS
Description: as §1, §2, §3, §4

Row | Compound | IC50 [1] | IC50 [2] | IC50 [3]
1 | CC(C)(O)c1cnc(-c2nc(-c3ccc(F)cc3)oc2Sc2ccc(Cl)cn2)cn1 [Ex 3, 2-{5-[5-[(5-Chloropyridin-2-yl)thio]-2-(4-fluorophenyl)-1,3-oxazol-4-yl]pyrazin-2-yl}propan-2-ol] | 71 nM | 23 nM | 44 nM
2 | CC(C)(O)c1ccc(-c2nc(-c3ccc(F)c(F)c3)oc2Sc2ccc(Cl)cn2)cn1 [Ex 35] | 37 nM | 27 nM | 21 nM
3 | Cc1cc(F)ccc1-c1nc(-c2ccc(C(C)(C)O)nc2)c(Sc2ccc(Cl)cn2)o1 [Ex 37] | 40 nM | 13 nM | 15 nM
4 | CC(C)(O)c1ccc(-c2nc(-c3ccccn3)oc2Sc2ccc(Cl)cn2)cn1 [Ex 51, 2-(5-{5-[(5-chloropyridin-2-yl)thio]-2-pyridin-2-yl-1,3-oxazol-4-yl}pyridin-2-yl)propan-2-ol, trifluoroacetic acid salt] | 148 nM | 26 nM | 107 nM
5 | CC(C)(O)c1ccc(-c2nc(-c3cc(F)c(F)cc3F)oc2Sc2ccc(Cl)cn2)cn1 [Ex 58] | 112 nM | 37 nM | 74 nM
6 | CC(C)(O)c1ccc(-c2nc(-c3ccccc3)oc2Sc2ncc(Cl)cn2)cn1 [Ex 62] | 41 nM | 23 nM | 29 nM
7 | CC(C)(O)c1ccc(-c2nc(-c3ccc(OC(F)(F)F)cc3)oc2Sc2ccc(Cl)cn2)cn1 [Ex 68] | 100 nM | 15 nM | 83 nM

The next lines start with the values.

Row | IC50 [1] | IC50 [2] | IC50 [3] | Compound
8 | 20 nM | 5 nM | 17 nM | C[S+]([O-])c1ccc(-c2nc(-c3ccc(F)cc3)oc2Sc2ccc(Cl)cn2)cn1 (racemic) [Ex 108, (R)-5-Chloro-2-({2-(4-fluorophenyl)-4-[6-(methylsulfinyl)pyridin-3-yl]-1,3-oxazol-5-yl}sulfanyl)pyridine and (S)-5-Chloro-2-({2-(4-fluorophenyl)-4-[6-(methylsulfinyl)pyridin-3-yl]-1,3-oxazol-5-yl}sulfanyl)pyridine]
9 | 25 nM | 19 nM | 13 nM | CC(C)(O)c1ccc(-c2nc(-c3ccc(F)cc3)oc2Sc2ccc(Cl)cn2)cn1 [Ex 12, 2-{5-[5-[(5-Chloropyridin-2-yl)thio]-2-(4-fluorophenyl)-1,3-oxazol-4-yl]pyridin-2-yl}propan-2-ol]
10 | 78 nM | 38 nM | 18 nM | CC(C)(O)c1ccc(-c2nc(-c3ccc(F)cc3)oc2Sc2ccc(F)cn2)cn1 [Ex 19]
11 | 59 nM | 43 nM | 29 nM | CC(C)(O)c1ccc(-c2nc(-c3ccc(F)cc3)oc2Sc2ncc(Cl)cn2)cn1 [Ex 20]
12 | 39 nM | 17 nM | 10 nM | CC(C)(O)c1ccc(-c2nc(-c3ccc(F)cc3)oc2Sc2ccc(Cl)cc2)nc1 [Ex 46]
13 | 77 nM | 9 nM | 8 nM | Fc1ccc(-c2nc(-c3ccc(-c4ncon4)cc3)c(Sc3ccc(Cl)cc3)o2)cc1 [Ex 48, 3-{4-[5-[(4-Chlorophenyl)thio]-2-(4-fluorophenyl)-1,3-oxazol-4-yl]phenyl}-1,2,4-oxadiazole]
14 | 114 nM | 15 nM | 16 nM | CS(=O)(=O)c1ccc(-c2nc(-c3ccccn3)oc2Sc2ccc(Cl)cc2)cc1 [Ex 56, 2-{5-[(4-chlorophenyl)thio]-4-[4-(methylsulfonyl)phenyl]-1,3-oxazol-2-yl}pyridine]
15 | 67 nM | 20 nM | 40 nM | Cc1ccc(-c2nc(-c3ccc(C(C)(C)O)nc3)c(Sc3ccc(Cl)cn3)o2)cc1 [Ex 59]
16 | 29 nM | 27 nM | 21 nM | COc1ccc(Sc2oc(-c3ccc(F)cc3)nc2-c2ccc(C(C)(C)O)nc2)c(F)c1 [Ex 65]
17 | – | 20 nM | 10 nM | CCOC(=O)c1cc(-c2nc(-c3ccc(F)cc3)oc2Sc2ccc(Cl)cn2)on1 [Ex 97, Ethyl 5-{5-[(5-chloropyridin-2-yl)sulfanyl]-2-(4-fluorophenyl)-1,3-oxazol-4-yl}isoxazole-3-carboxylate]
